Reference: PubChem BioAssay AID190 (DTP/NCI, 2004)
“And” between values parts separate entries of the source, which are not always exact repeats. Equal values may be shown once. Inconclusive results and toxic doses are left out.

Tested on: AKR/Lw mice, AKR lymphoma ip, median survival T/C
Assay: NCI In Vivo Anticancer Drug Screen. Data for tumor model Lymphoma AKR (Transplanted) (intraperitoneal) in AKR/Lw mice
Details: endpoint: median survival time, higher = longer survival
Procedure: The antitumor activity of compounds was measured in mice bearing transplantable tumors. Survival or tumor size were measured and the results are expressed as the measurement made in the treated group (T) divided by the measurement made in the vehicle treated control group (C). The tumor model used in this assay is Lymphoma AKR (Transplanted) (intraperitoneal) in AKR/Lw mice

[1] = dose: 200.0 mg/kg/injection, schedule: Q01DX001 (ip), vehicle: Klucel (hydroxypropylcellulose) (HPC)
[2] = dose: 100.0 mg/kg/injection, schedule: Q01DX001 (ip), vehicle: saline
[3] = dose: 200.0 mg/kg/injection, schedule: Q01DX001 (ip), vehicle: saline

`NC(=S)N/N=C/c1ccc(O)cn1` was tested, and the T/C (dose: 3.12 mg/kg/injection, schedule: Q01DX009 (ip), vehicle: Klucel (hydroxypropylcellulose) (HPC)) was 116 % of control, the T/C (dose: 12.5 mg/kg/injection, schedule: Q01DX009 (ip), vehicle: Klucel (hydroxypropylcellulose) (HPC)) was 214 % of control and the T/C (dose: 20.0 mg/kg/injection, schedule: Q06HX008 (ip), vehicle: Klucel (hydroxypropylcellulose) (HPC)) was 115 % of control. The T/C (dose: 20.0 mg/kg/injection, schedule: Q06HX012 (ip), vehicle: Klucel (hydroxypropylcellulose) (HPC)) was 115 % of control, the T/C (dose: 25.0 mg/kg/injection, schedule: Q01DX009 (ip), vehicle: Klucel (hydroxypropylcellulose) (HPC)) was 119 % of control and the T/C (dose: 25.0 mg/kg/injection, schedule: Q04DX003 (ip), vehicle: Klucel (hydroxypropylcellulose) (HPC)) was 116 % of control. The T/C (dose: 30.0 mg/kg/injection, schedule: Q06HX008 (ip), vehicle: Klucel (hydroxypropylcellulose) (HPC)) was 107 % of control, the T/C (dose: 31.25 mg/kg/injection, schedule: Q06HX004 (ip), vehicle: saline) was 116 % of control and the T/C (dose: 31.25 mg/kg/injection, schedule: Q06HX012 (ip), vehicle: saline) was 96 % of control. The T/C (dose: 31.25 mg/kg/injection, schedule: Q06HX016 (ip), vehicle: saline) was 113 % of control, the T/C (dose: 40.0 mg/kg/injection, schedule: Q06HX008 (ip), vehicle: Klucel (hydroxypropylcellulose) (HPC)) was 103 % of control and the T/C (dose: 40.0 mg/kg/injection, schedule: Q06HX012 (ip), vehicle: Klucel (hydroxypropylcellulose) (HPC)) was 123 % of control. For the same molecule, the T/C (dose: 50.0 mg/kg/injection, schedule: Q01DX009 (ip), vehicle: Klucel (hydroxypropylcellulose) (HPC)) was 110 % of control and 214 % of control, the T/C (dose: 50.0 mg/kg/injection, schedule: Q04DX003 (ip), vehicle: Klucel (hydroxypropylcellulose) (HPC)) was 123 % of control and the T/C (dose: 50.0 mg/kg/injection, schedule: Q06HX008 (ip), vehicle: Klucel (hydroxypropylcellulose) (HPC)) was 88 % of control. For the same molecule, the T/C (dose: 50.0 mg/kg/injection, schedule: Q06HX012 (ip), vehicle: Klucel (hydroxypropylcellulose) (HPC)) was 111 % of control, the T/C (dose: 60.0 mg/kg/injection, schedule: Q06HX008 (ip), vehicle: Klucel (hydroxypropylcellulose) (HPC)) was 119 % of control and the T/C (dose: 60.0 mg/kg/injection, schedule: Q06HX012 (ip), vehicle: Klucel (hydroxypropylcellulose) (HPC)) was 103 % of control. The T/C (dose: 62.5 mg/kg/injection, schedule: Q06HX004 (ip), vehicle: saline) was 90 % of control, the T/C (dose: 62.5 mg/kg/injection, schedule: Q06HX008 (ip), vehicle: saline) was 110 % of control and the T/C (dose: 62.5 mg/kg/injection, schedule: Q06HX012 (ip), vehicle: saline) was 113 % of control. The T/C (dose: 62.5 mg/kg/injection, schedule: Q06HX016 (ip), vehicle: saline) was 120 % of control, the T/C (dose: 75.0 mg/kg/injection, schedule: Q01DX009 (ip), vehicle: Klucel (hydroxypropylcellulose) (HPC)) was 173 % of control and the T/C (dose: 100.0 mg/kg/injection, schedule: Q04DX003 (ip), vehicle: Klucel (hydroxypropylcellulose) (HPC)) was 120 % of control. For the same molecule, the T/C (dose: 125.0 mg/kg/injection, schedule: Q06HX008 (ip), vehicle: saline) was 96 % of control, the T/C (dose: 125.0 mg/kg/injection, schedule: Q06HX012 (ip), vehicle: saline) was 86 % of control and the T/C (dose: 200.0 mg/kg/injection, schedule: Q04DX003 (ip), vehicle: Klucel (hydroxypropylcellulose) (HPC)) was 123 % of control.

For `CCOC(=O)/C(C(C)=O)=C(/O)c1ccc(OC(F)(F)C(F)Cl)cc1OC(F)(F)C(F)Cl.CCOC(=O)/C(C(C)=O)=C(/O)c1ccc(OC(F)(F)C(F)Cl)cc1OC(F)(F)C(F)Cl.[Cu]` (stereo not given), the T/C (dose: 100.0 mg/kg/injection, schedule: Q01DX001 (ip), vehicle: Klucel (hydroxypropylcellulose) (HPC)) was 100 % of control and the T/C [1] was 90 % of control.

With `CCCCCCCCCCCCCCCC(=O)N(CCC#N)CCCCCCCCCN(CCC#N)C(=O)CCCCCCCCCCCCCCC` the T/C [2] was 116 % of control and the T/C [3] was 94 % of control.

In the case of `ClCCCNCc1ccccc1`, the T/C [2] is reported as 94 % of control.

In the case of `CC12CC3CC(C1)CC(C(=O)O)(C3)C2`, the T/C (dose: 25.0 mg/kg/injection, schedule: Q04DX003 (ip), vehicle: saline) is reported as 97 % of control, the T/C (dose: 50.0 mg/kg/injection, schedule: Q04DX003 (ip), vehicle: saline) is reported as 102 % of control and the T/C [2] is reported as 100 % of control. The T/C (dose: 100.0 mg/kg/injection, schedule: Q04DX003 (ip), vehicle: saline) was 100 % of control, the T/C [3] was 101 % of control and the T/C (dose: 400.0 mg/kg/injection, schedule: Q01DX001 (ip), vehicle: saline) was 108 % of control.

With `CC(=O)c1ccc2ccccc2c1O` the T/C (dose: 25.0 mg/kg/injection, schedule: Q01DX001 (ip), vehicle: Klucel (hydroxypropylcellulose) (HPC)) was 102 % of control, the T/C (dose: 50.0 mg/kg/injection, schedule: Q01DX001 (ip), vehicle: Klucel (hydroxypropylcellulose) (HPC)) was 88 % of control and the T/C [1] was 88 % of control. The T/C (dose: 200.0 mg/kg/injection, schedule: Q01DX001 (ip), vehicle: other) was 104 % of control and the T/C (dose: 400.0 mg/kg/injection, schedule: Q01DX001 (ip), vehicle: other) was 111 % of control.

In the case of `COc1cccc2c1C(=O)c1c(O)c3c(c(O)c1C2=O)C[C@@](O)(C(=O)CO)C[C@@H]3OC1CC(N)C(O)C(C)O1` (stereo not given in full), the T/C (dose: 0.12 mg/kg/injection, schedule: Q01DX006 (sc), vehicle: saline) is reported as 110 % of control, the T/C (dose: 0.25 mg/kg/injection, schedule: Q01DX006 (ip), vehicle: saline) is reported as 107 % of control and the T/C (dose: 0.25 mg/kg/injection, schedule: Q01DX006 (sc), vehicle: saline) is reported as 97 % of control. The T/C (dose: 0.5 mg/kg/injection, schedule: Q01DX006 (ip), vehicle: saline) was 115 % of control, the T/C (dose: 0.5 mg/kg/injection, schedule: Q01DX006 (sc), vehicle: saline) was 109 % of control (2×) and 110 % of control and the T/C (dose: 0.5 mg/kg/injection, schedule: Q04DX003 (sc), vehicle: saline) was 105 % of control. For the same molecule, the T/C (dose: 0.9 mg/kg/injection, schedule: Q04DX003 (sc), vehicle: saline) was 105 % of control, the T/C (dose: 1.0 mg/kg/injection, schedule: Q01DX006 (ip), vehicle: saline) was 115 % of control and the T/C (dose: 1.0 mg/kg/injection, schedule: Q01DX006 (sc), vehicle: saline) was 117 % of control. For the same molecule, the T/C (dose: 1.5 mg/kg/injection, schedule: Q01DX006 (sc), vehicle: saline) was 110 % of control and 114 % of control (2×) and the T/C (dose: 2.6 mg/kg/injection, schedule: Q04DX003 (sc), vehicle: saline) was 97 % of control.

`CC[C@H]1CN2CCc3cc(OC)c(OC)cc3[C@@H]2C[C@@H]1C[C@H]1NCCc2cc(OC)c(OC)cc21` was tested, and the T/C (dose: 0.5 mg/kg/injection, schedule: Q01DX009 (ip), vehicle: saline) was 100 % of control, the T/C (dose: 0.75 mg/kg/injection, schedule: Q04DX003 (ip), vehicle: saline) was 87 % of control and the T/C (dose: 1.0 mg/kg/injection, schedule: Q01DX009 (ip), vehicle: saline) was 96 % of control and 107 % of control. The T/C (dose: 1.25 mg/kg/injection, schedule: Q01DX009 (ip), vehicle: saline) was 102 % of control, the T/C (dose: 1.5 mg/kg/injection, schedule: Q04DX003 (ip), vehicle: saline) was 87 % of control and the T/C (dose: 2.0 mg/kg/injection, schedule: Q01DX009 (ip), vehicle: saline) was 96 % of control. For the same molecule, the T/C (dose: 2.5 mg/kg/injection, schedule: Q01DX009 (ip), vehicle: saline with Tween-80) was 100 % of control, the T/C (dose: 3.0 mg/kg/injection, schedule: Q01DX001 (ip), vehicle: saline) was 95 % of control and the T/C (dose: 3.0 mg/kg/injection, schedule: Q04DX003 (ip), vehicle: saline) was 97 % of control. For the same molecule, the T/C (dose: 5.0 mg/kg/injection, schedule: Q01DX009 (ip), vehicle: saline with Tween-80) was 122 % of control, the T/C (dose: 5.0 mg/kg/injection, schedule: Q04DX003 (ip), vehicle: saline) was 95 % of control and the T/C (dose: 6.0 mg/kg/injection, schedule: Q01DX001 (ip), vehicle: saline) was 111 % of control. The T/C (dose: 6.0 mg/kg/injection, schedule: Q04DX003 (ip), vehicle: saline) was 96 % of control and 118 % of control, the T/C (dose: 6.2 mg/kg/injection, schedule: Q01DX001 (ip), vehicle: saline) was 105 % of control and the T/C (dose: 6.2 mg/kg/injection, schedule: Q04DX003 (ip), vehicle: saline) was 96 % of control and 100 % of control and 124 % of control. For the same molecule, the T/C (dose: 6.25 mg/kg/injection, schedule: Q04DX003 (ip), vehicle: saline) was 116 % of control and 117 % of control, the T/C (dose: 7.5 mg/kg/injection, schedule: Q01DX001 (ip), vehicle: saline) was 111 % of control and the T/C (dose: 10.0 mg/kg/injection, schedule: Q01DX009 (ip), vehicle: saline with Tween-80) was 106 % of control. For the same molecule, the T/C (dose: 12.0 mg/kg/injection, schedule: Q01DX001 (ip), vehicle: saline) was 115 % of control, the T/C (dose: 12.5 mg/kg/injection, schedule: Q01DX001 (ip), vehicle: saline) was 103 % of control and 113 % of control and the T/C (dose: 15.0 mg/kg/injection, schedule: Q01DX001 (ip), vehicle: saline) was 117 % of control.
